In PubChem BioAssay AID1996:
Values after ≈ are worked out from the molar mass of the structure shown.

Settings: buffer; pH 7.4; 200.0 µM

First: CC(C)C(NC(=O)c1ccco1)C(=O)NCc1ccc(C(=O)O)cc1 (centres undefined)
Second: COc1ccc(NC(=O)CNC(=O)c2ccco2)cc1S(=O)(=O)Nc1cc(C)ccc1Br
The solubility kinetic of the first is higher: over 51.7 µg/mL for the first, 17.1 µg/mL (≈ 32.7 µM) for the second.

First: CCN=C1S/C(=C\c2cc(Cl)c(OC)c(OC)c2)C(=O)N1CC
Second: COc1ccc(CN2CCNCC2)c(OC)c1OC.Cl
The solubility kinetic of the first is 50-fold lower: 0.8 µg/mL (≈ 2.25 µM) for the first, 40.3 µg/mL for the second.

Going from `Cc1ccc2nc(SCC(=O)N3CCN(c4ccccc4)CC3)[nH]c2c1` to `O=C(CN1CCN(c2ccc(F)cc2)CC1)Nc1nccs1`, the solubility kinetic rises from 1.7 µg/mL (≈ 4.64 µM) to 24.5 µg/mL (≈ 76.5 µM) (14-fold).

First: CC(C)NC(=O)COc1ccc(OCc2ccccc2)cc1
Second: COc1ccc(C(=O)NC2CCSc3ccccc32)cc1 (centres undefined)
The solubility kinetic of the first is 1.5-fold higher: 9.5 µg/mL (≈ 31.7 µM) for the first, 6.3 µg/mL (≈ 21 µM) for the second.

Compared with `Cc1ccc(C(=O)O/N=C(\N)c2ccccn2)c(C)c1`, `Cc1ccc(C(=O)OCN2C(=O)c3ccccc3C2=O)c(O)c1` is lower in solubility kinetic: over 40.4 µg/mL for the first, under 0.7 µg/mL for the second.

Going from `CCCCNC(=O)c1cc2cccc([N+](=O)[O-])c2[nH]1` to `COc1ccc(CCNC(=O)COc2ccccc2[N+](=O)[O-])cc1OC`, the solubility kinetic rises from 27.3 µg/mL (≈ 104 µM) to over 54.1 µg/mL.

Going from `O=C(COC(=O)C1CCCCC1)NCc1ccc(Cl)cc1` to `CCc1ccc(NC(=O)NC2CCCCCCC2)cc1`, the solubility kinetic falls from 31.7 µg/mL (≈ 102 µM) to under 0.3 µg/mL.

Going from `Cc1cccc(N(CC(=O)N2CCCC2)S(C)(=O)=O)c1` to `COc1ccc(OC)c(/C=C/C(=O)OCC(=O)N2CCCCC2)c1`, the solubility kinetic rises from 43.5 µg/mL (≈ 147 µM) to over 50 µg/mL.

Going from `O=C(Nc1ccc(CN2CCS(=O)(=O)CC2)cc1)c1ccc(F)cc1` to `Cn1c(NC(=O)c2ccc(F)cc2)c(-c2ccccn2)c(=O)c2ccccc21`, the solubility kinetic falls from 29.9 µg/mL (≈ 82.5 µM) to 6.2 µg/mL (≈ 16.6 µM) (4.8-fold).

First: c1coc(CSc2ncnc3c2oc2ccccc23)c1
Second: CCN(CC)C(=O)COc1c(-c2ccco2)oc2ccccc2c1=O
The solubility kinetic of the first is lower: 0.9 µg/mL (≈ 3.19 µM) for the first, over 51.2 µg/mL for the second.

`CCOC(=O)/C(C#N)=C/Nc1ccsc1C(C)=O` and `CCOc1ccc(NC(=O)c2[nH]c(C)c(C(C)=O)c2C)cc1` are within 1.5-fold of each other in solubility kinetic: 3.5 µg/mL (≈ 13.2 µM) for the first, 3.4 µg/mL (≈ 11.3 µM) for the second.

First: Cc1noc(C)c1C(=O)Nc1nc2ccc(F)cc2s1
Second: CCc1noc(C)c1C(=O)NCCc1c[nH]c2ccccc12
The solubility kinetic of the first is lower: 22.2 µg/mL (≈ 76.2 µM) for the first, over 44.6 µg/mL for the second.

Going from `CNC(=O)COC(=O)/C=C/c1cccc(F)c1` to `CSc1ncccc1C(=O)OCC(=O)c1ccccc1`, the solubility kinetic falls from over 35.6 µg/mL to 1 µg/mL (≈ 3.48 µM).

Going from `O=C1c2nccnc2C(=O)N1c1ccc(C(F)(F)F)cc1` to `O=C1NC(=O)N(c2ccc(F)cc2)C(=O)/C1=C/c1ccsc1`, the solubility kinetic rises from 39.5 µg/mL (≈ 135 µM) to over 47.4 µg/mL.

Going from `CNc1snc(C)c1C(=O)OC(C)C(=O)Nc1ccc(F)cc1` (centres undefined) to `CCOc1ccc(N/C(=N/c2nc(C)cc(C)n2)NC(C)=O)cc1`, the solubility kinetic falls from over 50.6 µg/mL to 15.1 µg/mL (≈ 46.1 µM).

`CSCCC(NC(=O)c1cccc(C)c1)C(=O)NCc1cccs1` (centres undefined) and `Cc1cccc(NC(=O)C(=O)C2C(=O)Nc3ccccc32)c1` (centres undefined) cannot be ordered by solubility kinetic: over 54.4 µg/mL for the first, over 44.1 µg/mL for the second.

First: CSc1nnc(C)c(=O)n1COC(=O)c1ccccc1
Second: COc1ccccc1C/C(N)=N/OC(=O)c1cccs1
The solubility kinetic of the first is higher: over 43.7 µg/mL for the first, 42.8 µg/mL (≈ 147 µM) for the second.

Going from `CCCCn1c(=O)c(C(=O)Nc2ccccc2F)c(O)c2ccccc21` to `O=C(CCN1C(=O)c2ccccc2C1=O)Nc1cccc(O)c1`, the solubility kinetic rises from under 0.4 µg/mL to over 46.5 µg/mL.

Going from `COc1cc(OC)c(C(=O)Nc2cccnc2)cc1OC` to `COCc1cc(C)nc(OC)c1C(N)=O`, the solubility kinetic falls from over 43.2 µg/mL to 23.9 µg/mL (≈ 114 µM).

`CCN(C(=O)CN1CCC(C(=O)OC)CC1)c1c(N)n(Cc2ccccc2)c(=O)[nH]c1=O` and `O=C(COC(=O)c1ccc(F)c(S(=O)(=O)N2CCOCC2)c1)NCc1ccccc1` cannot be ordered by solubility kinetic: over 66.5 µg/mL for the first, over 65.5 µg/mL for the second.

`Cc1ccc2c(Cl)cc(Cl)c(OCC(=O)O)c2n1` and `CC(=O)C1=NOC2C(=O)N(c3ccc(Cl)cc3)C(=O)C12` (centres undefined) cannot be ordered by solubility kinetic: over 42.9 µg/mL for the first, over 43.9 µg/mL for the second.

Going from `CCCNC(=O)CSc1nccn1Cc1ccc(OC)cc1` to `COc1ccc(CNC(=O)CN2C(=O)NC(c3ccccc3)(c3ccccc3)C2=O)cc1`, the solubility kinetic falls from over 47.9 µg/mL to 4.5 µg/mL (≈ 10.5 µM).

Compared with `COc1ccc(S(=O)(=O)N2CC(=O)Nc3ccccc32)cc1`, `CCN1C(=O)NC(c2ccccc2)(c2ccccc2)C1=O` is lower in solubility kinetic: over 47.8 µg/mL for the first, under 0.3 µg/mL for the second.

Compared with `NC(=O)CCN1CCN(S(=O)(=O)/C=C/c2ccccc2)CC1`, `Cc1ccc(S(=O)(=O)NC(C)(C)CN2CCCCC2)cc1` is higher in solubility kinetic: 42.4 µg/mL (≈ 131 µM) for the first, over 46.6 µg/mL for the second.

`CC(C)[C@@H](N)C(=O)N/N=C/c1ccc2nccnc2c1.Cl` and `C/C(=N\O)c1ccc2c(c1)CC(C)O2` (centres undefined) cannot be ordered by solubility kinetic: over 46.2 µg/mL for the first, over 28.7 µg/mL for the second.

`O=C1C(Cl)=C(N2CCCCCC2)C(=O)N1c1ccc(Cl)cc1` and `O=c1sc2ccccc2c(N2CCCCC2)c1[N+](=O)[O-]` are within 1.5-fold of each other in solubility kinetic: 26.2 µg/mL (≈ 77.2 µM) for the first, 20.4 µg/mL (≈ 70.3 µM) for the second.

First: Br.O=C(O)c1ccccc1CSC1=NCCS1
Second: O=C(CSCc1c(F)cccc1F)Nc1ccccc1
The solubility kinetic of the first is higher: over 50.1 µg/mL for the first, 37.7 µg/mL (≈ 129 µM) for the second.

Compared with `Cc1nc(NC(=O)C2CCCCC2C(=O)O)sc1C` (centres undefined), `CCCc1nc(SCC(=O)NC2CC2)c2c(C)c(C)sc2n1` is 51-fold lower in solubility kinetic: 40.5 µg/mL (≈ 143 µM) for the first, 0.8 µg/mL (≈ 2.38 µM) for the second.

Compared with `Cl.OC(CNC1CCCC1)COc1ccc(F)cc1` (centres undefined), `CCn1c(SCC(=O)N2CCCC2)nc2c(c1=O)SCC2` is higher in solubility kinetic: 36.6 µg/mL for the first, over 48.8 µg/mL for the second.

Work on `CCOC(=O)c1c(/N=C/N(C)C)sc(C)c1C` yielded a solubility kinetic of 37.3 µg/mL (≈ 147 µM).
